Laboratory results: US20170121295A1, “POLYCYCLIC LPA1 ANTAGONIST AND USES THEREOF” (AMIRA PHARMACEUTICALS, INC., priority 2010, published 2017)

What was measured:
Format in all cases: physicochemical
[1] = Solid form stability on storage at elevated relative humidity (XRPD)
Excerpt: X-Ray powder diffraction patterns were collected on a Bruker AXS C2 GADDS or Bruker AXS D8 Advance diffractometer.
X-Ray Powder Diffraction patterns were collected on a Bruker D8 diffractometer using Cu Kα radiation (40 kV, 40 mA), θ−2θ goniometer, and divergence of V4 and receiving slits, a Ge monochromator and a Lynxeye detector. The instrument was performance checked using a certified Corundum standard (NIST 1976). The software used for data collection was Diffrac Plus XRD Commander v2.5.0 and the data were analyzed and presented using Diffrac Plus EVA v 11.0.0.2 or v 13.0.0.2. Samples were run under ambient conditions as flat plate specimens using powder. Approximately 5 mg of the sample was gently packed into a cavity cut into polished, zero-background (510) silicon wafer. The sample was rotated in its own plane during analysis. The details of the data collection are: • Angular range: 2 to 42° 2θ • Step size: 0.05° 2θ • Collection time: 0.5 s·step^−1

[2] = Gravimetric Vapour Sorption (GVS)
Description: In some embodiments, sorption isotherms were obtained using a SMS DVS Intrinsic moisture sorption analyzer, controlled by SMS Analysis Suite software. The sample temperature was maintained at 25° C. by the instrument controls. The humidity was controlled by mixing streams of dry and wet nitrogen, with a total flow rate of 200 ml·min−1. The relative humidity was measured by a calibrated Rotronic probe (dynamic range of 1.0-100% RH), located near the sample. The weight change (mass relaxation) of the sample as a function of % RH was constantly monitored by the microbalance (accuracy ±0.005 mg). Typically 5-20 mg of sample was placed in a tared mesh stainless steel basket under ambient conditions. The sample was loaded and unloaded at 40% RH and 25° C. (typical room conditions). A moisture sorption isotherm was performed as outlined below (2 scans giving 1 complete cycle). The standard isotherm was performed at 25° C. at 10% RH intervals over a 0.5-90% RH range.
The sample was recovered after completion of the isotherm and re-analyzed by XRPD.

[3] = Solubility assessment at various pH levels (solubility profile); details: 0.15M NaCl solution, saline or isotonic, thermodynamic from solid
Description: For solubility assessment at various pH levels sufficient material to produce a maximum concentration of 10 mg·ml^−1 of API was treated with 0.15M NaCl solution and then the pH adjusted with HCl or NaOH solutions to achieve the desired pH levels. The suspensions were allowed to equilibrate for 2 hours and the pH measured and adjusted if necessary. Suspensions were then filtered and the amount of dissolved API quantified by HPLC against a standard reference solution.
Analysis was performed on an Agilent HP1100 series system equipped with a diode array detector and using ChemStation software vB.02.01-SR1.
The solubility of both the free acid and amorphous sodium salt was determined at a range of pH values.

[4] = 40° C./75% RH for one week, sodium salt

| XRPD / solid form after storage ([1]; 25° C./95% RH, a week) | XRPD / solid form after storage [1, 4] | solubility at 2 h ([3]; Target pH 3, pH adjusted with HCl or NaOH) [µg/mL] | solubility at 2 h ([3]; Target pH 4, pH adjusted with HCl or NaOH) [µg/mL] | solubility at 2 h ([3]; Target pH 5, pH adjusted with HCl or NaOH) [µg/mL] | solubility at 2 h ([3]; Target pH 6, pH adjusted with HCl or NaOH) [µg/mL] | solubility at 2 h ([3]; Target pH 7, pH adjusted with HCl or NaOH) [µg/mL] | solubility at 2 h ([3]; Target pH 8, pH adjusted with HCl or NaOH) [µg/mL] | solubility at 2 h ([3]; Target pH 9, pH adjusted with HCl or NaOH) [µg/mL] | solubility at 2 h ([3]; Target pH 11, pH adjusted with HCl or NaOH) [µg/mL] | change of form after GVS analysis (XRPD) [2] | mass gain between 0% and 90% relative humidity ([2]; 25° C.) | SMILES | hygroscopicity (comparison) [2] |
| --- | --- | --- | --- | --- | --- | --- | --- | --- | --- | --- | --- | --- | --- |
| no loss of crystallinity | no loss of crystallinity |  |  |  |  |  |  |  |  |  |  | Cc1noc(-c2ccc(-c3ccc(C4(C(=O)[O-])CC4)cc3)cc2)c1NC(=O)O[C@H](C)c1ccccc1.[Na+] [Crystalline Compound 2 (Pattern 1), 1-{4′-[3-methyl-4-((R)-1-phenyl-ethoxycarbonylamino)-isoxazol-5-yl]-biphenyl-4-yl}-cyclopropanecarboxylic acid, sodium salt] | lower hygroscopicity than its amorphous counterpart |
|  |  | < 1 | < 1 | < 1 | 1.7 | 300 | 5600 | 17000 | 16000 |  |  | Cc1noc(-c2ccc(-c3ccc(C4(C(=O)[O-])CC4)cc3)cc2)c1NC(=O)O[C@H](C)c1ccccc1.[Na+] [Compound 2 (Amorphous)] |  |
|  | remains largely amorphous |  |  |  |  |  |  |  |  | No change of form is observed | more than 20% | Cc1noc(-c2ccc(-c3ccc(C4(C(=O)[O-])CC4)cc3)cc2)c1NC(=O)O[C@H](C)c1ccccc1.[Na+] [Amorphous Compound 2, 1-{4′-[3-methyl-4-((R)-1-phenyl-ethoxycarbonylamino)-isoxazol-5-yl]-biphenyl-4-yl}-cyclopropanecarboxylic acid, sodium salt] |  |
